According to ChEMBL document CHEMBL3997855, “Discovery of Fevipiprant (NVP-QAW039), a Potent and Selective DP2 Receptor Antagonist for Treatment of Asthma” (ACS Med Chem Lett, 2017):
Blank lines part the entries; values can stand above or below the compound they belong to.

What was measured:
[1] = biological target: T1, Prostaglandin D2 receptor 2 (Homo sapiens, UniProt Q9Y5Y4); test: Antagonist activity at DP2 receptor in human isolated eosinophils assessed as inhibition of DK-PGD2-induced shape change preincubated for 5 mins followed by DK-PGD2 addition measured after 5 mins by flow cytometry
T1 sequence (Q9Y5Y4 whole entry): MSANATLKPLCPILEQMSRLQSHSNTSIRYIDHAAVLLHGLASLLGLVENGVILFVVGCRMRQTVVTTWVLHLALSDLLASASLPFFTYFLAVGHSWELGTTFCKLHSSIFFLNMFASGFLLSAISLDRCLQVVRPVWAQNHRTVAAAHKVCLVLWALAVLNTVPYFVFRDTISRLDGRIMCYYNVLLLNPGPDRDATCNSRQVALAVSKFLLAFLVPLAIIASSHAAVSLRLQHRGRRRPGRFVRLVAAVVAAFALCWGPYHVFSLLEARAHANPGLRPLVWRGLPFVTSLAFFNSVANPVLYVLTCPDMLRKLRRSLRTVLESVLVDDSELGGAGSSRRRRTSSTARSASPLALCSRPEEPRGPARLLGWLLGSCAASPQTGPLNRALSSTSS

[2] = biological target: T1, Prostaglandin D2 receptor 2; test: Displacement of [3H]PGD2 from human DP2 receptor expressed in CHO cell membranes after 60 mins by scintillation proximity assay
[3] = Half life in Wistar rat at 0.5 mg/kg, iv by LC-MS/MS analysis; format: ADME, organism-based; details: in vivo
[4] = biological target: T1, Prostaglandin D2 receptor 2; test: Displacement of [3H]NVP-QAW039 from human DP2 receptor expressed in CHO cell membranes by TopCount scintillation assay
[5] = Clearance in Wistar rat at 0.5 mg/kg, iv or 3 mg/kg, po by LC-MS/MS analysis; format: ADME, organism-based; details: in vivo
[6] = biological target: T2, Prostaglandin D2 receptor 2 (Homo sapiens) (UniProt Q9Y5Y4)
T2 sequence (whole entry): T1 sequence (Q9Y5Y4 whole entry)
Description: Displacement of [3H]NVP-QAW039 from human DP2 receptor expressed in CHO cell membranes assessed as dissociation half life by TopCount scintillation assay

[7] = Oral bioavailability in Wistar rat at 3 mg/kg by LC-MS/MS analysis; format: ADME, organism-based; details: in vivo
[8] = Volume of distribution at steady state in Wistar rat at 0.5 mg/kg, iv or 3 mg/kg, po by LC-MS/MS analysis; format: ADME, organism-based; details: in vivo, read-out: Vdss
[9] = biological target: Cytochrome P450 2C9 (Homo sapiens, UniProt P11712); test: Inhibition of human CYP2C9; format: ADME
[10] = biological target: T3, Prostaglandin E2 receptor EP3 subtype (Homo sapiens, UniProt P43115); test: Agonist activity at EP3 receptor (unknown origin)
T3 sequence (P43115 whole entry): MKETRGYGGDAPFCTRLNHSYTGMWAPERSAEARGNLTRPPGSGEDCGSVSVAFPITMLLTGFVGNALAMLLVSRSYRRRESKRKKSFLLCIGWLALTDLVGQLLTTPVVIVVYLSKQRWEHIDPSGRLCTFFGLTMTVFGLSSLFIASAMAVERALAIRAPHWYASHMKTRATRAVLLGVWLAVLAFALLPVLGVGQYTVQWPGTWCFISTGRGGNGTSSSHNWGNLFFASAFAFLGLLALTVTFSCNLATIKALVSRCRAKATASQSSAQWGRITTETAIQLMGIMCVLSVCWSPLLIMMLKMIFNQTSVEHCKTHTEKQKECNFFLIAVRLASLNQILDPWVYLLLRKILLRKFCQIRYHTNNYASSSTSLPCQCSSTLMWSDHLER

[11] = biological target: Cytochrome P450 2D6 (Homo sapiens, UniProt P10635); test: Inhibition of human CYP2D6; format: ADME
[12] = biological target: T4, Nuclear receptor subfamily 1 group I member 2 (Homo sapiens, UniProt O75469); test: Activation of PXR (unknown origin) assessed as CYP3A4 induction; format: ADME
T4 sequence (O75469 whole entry): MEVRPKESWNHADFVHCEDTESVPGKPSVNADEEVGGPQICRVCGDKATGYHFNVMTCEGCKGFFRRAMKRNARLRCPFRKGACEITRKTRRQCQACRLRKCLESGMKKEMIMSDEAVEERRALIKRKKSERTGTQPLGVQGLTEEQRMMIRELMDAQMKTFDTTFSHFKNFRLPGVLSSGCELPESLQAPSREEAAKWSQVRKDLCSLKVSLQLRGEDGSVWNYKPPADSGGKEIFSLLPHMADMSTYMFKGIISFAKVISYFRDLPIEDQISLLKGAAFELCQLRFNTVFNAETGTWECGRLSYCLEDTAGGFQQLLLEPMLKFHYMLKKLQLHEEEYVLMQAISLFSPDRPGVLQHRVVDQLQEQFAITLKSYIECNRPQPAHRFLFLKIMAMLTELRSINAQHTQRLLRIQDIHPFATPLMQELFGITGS

[13] = biological target: T5, Thromboxane A2 receptor (Homo sapiens, UniProt P21731); test: Antagonist activity at TP receptor (unknown origin)
T5 sequence (P21731 whole entry): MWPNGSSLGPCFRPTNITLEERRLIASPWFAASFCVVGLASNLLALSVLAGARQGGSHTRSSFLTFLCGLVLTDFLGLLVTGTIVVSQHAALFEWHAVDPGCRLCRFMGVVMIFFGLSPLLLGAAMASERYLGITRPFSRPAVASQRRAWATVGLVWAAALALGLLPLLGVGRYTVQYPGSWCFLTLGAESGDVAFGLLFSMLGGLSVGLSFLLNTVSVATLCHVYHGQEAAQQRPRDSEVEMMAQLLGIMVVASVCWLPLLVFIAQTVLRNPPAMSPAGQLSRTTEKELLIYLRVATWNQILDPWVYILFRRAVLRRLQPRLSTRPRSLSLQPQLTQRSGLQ

[14] = biological target: T6, Cytochrome P450 1A2 (Homo sapiens, UniProt P05177); test: Inhibition of human CYP1A2; format: ADME
T6 sequence (P05177 whole entry): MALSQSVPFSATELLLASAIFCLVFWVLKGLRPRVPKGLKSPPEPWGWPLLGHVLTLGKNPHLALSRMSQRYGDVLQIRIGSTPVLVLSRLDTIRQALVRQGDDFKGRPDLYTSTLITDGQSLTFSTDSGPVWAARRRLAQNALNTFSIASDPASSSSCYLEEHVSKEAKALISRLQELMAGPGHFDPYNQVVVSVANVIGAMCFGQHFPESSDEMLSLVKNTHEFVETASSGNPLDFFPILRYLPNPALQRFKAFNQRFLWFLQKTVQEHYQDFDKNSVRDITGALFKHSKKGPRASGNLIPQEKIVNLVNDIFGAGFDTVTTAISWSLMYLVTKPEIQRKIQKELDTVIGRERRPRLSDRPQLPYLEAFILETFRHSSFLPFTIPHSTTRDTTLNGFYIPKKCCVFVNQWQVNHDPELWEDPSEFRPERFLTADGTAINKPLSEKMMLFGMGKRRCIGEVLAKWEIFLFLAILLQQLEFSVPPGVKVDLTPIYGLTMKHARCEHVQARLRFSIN

[15] = biological target: T1, Prostaglandin D2 receptor 2; test: Antagonist activity at DP2 receptor in CD4-positive human TH2 cells assessed as inhibition of DK-PGD2-induced IL-13 production after 6 to 8 hrs
[16] = Fraction unbound in plasma of Sprague-Dawley rat DK-PGD2-induced pulmonary eosinophilia mechanistic model at 0.03 to 0.1 mg/kg, po by equilibrium dialysis method; format: ADME, organism-based
[17] = species: Canis familiaris; test: Toxicity in dog; parameters: species or system Canis lupus familiaris; details: in vivo
[18] = biological target: Prostaglandin F2-alpha receptor (Homo sapiens, UniProt P43088); test: Antagonist activity at FP receptor (unknown origin)
[19] = biological target: Prostaglandin E2 receptor EP4 subtype (Homo sapiens, UniProt P35408); test: Antagonist activity at EP4 receptor (unknown origin)
[20] = biological target: Cytochrome P450 3A4 (Homo sapiens, UniProt P08684); test: Inhibition of human CYP3A4; format: ADME
[21] = species: Rattus norvegicus; test: Toxicity in rat; details: in vivo
[22] = biological target: T7, Prostaglandin D2 receptor (Homo sapiens, UniProt Q13258); test: Antagonist activity at DP1 receptor (unknown origin)
T7 sequence (Q13258 whole entry): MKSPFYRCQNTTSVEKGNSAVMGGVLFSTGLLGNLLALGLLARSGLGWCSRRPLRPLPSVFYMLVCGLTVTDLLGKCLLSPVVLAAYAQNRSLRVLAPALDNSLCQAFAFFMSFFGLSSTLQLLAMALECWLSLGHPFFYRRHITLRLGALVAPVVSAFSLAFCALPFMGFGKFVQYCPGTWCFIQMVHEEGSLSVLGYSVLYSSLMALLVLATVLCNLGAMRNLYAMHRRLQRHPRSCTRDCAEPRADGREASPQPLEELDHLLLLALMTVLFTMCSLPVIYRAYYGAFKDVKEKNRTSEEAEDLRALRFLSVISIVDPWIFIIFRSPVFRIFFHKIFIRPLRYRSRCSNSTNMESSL

[23] = biological target: T1, Prostaglandin D2 receptor 2; test: Antagonist activity at DP2 receptor in CD4-positive human TH2 cells assessed as inhibition of PGD2-induced IL-4 production preincubated for 30 mins followed by PGD2 addition measured after 6 hrs
[24] = biological target: T1, Prostaglandin D2 receptor 2; test: Antagonist activity at DP2 receptor in CD4-positive human TH2 cells assessed as inhibition of DK-PGD2-induced IL-5 production after 6 to 8 hrs
[25] = tested on: Rattus norvegicus; test: (§1) In vivo antagonist activity at DP2 receptor in Sprague-Dawley rat DK-PGD2-induced pulmonary eosinophilia mechanistic model assessed inhibition of eosinophilia in broncho alveolar lavage fluid at 0.03 to 0.1 mg/kg, po pretreated for 40 mins starting at 2 hrs post IL-5 administration followed by DK-PGD2 administration measured after 2 hrs; format: functional, organism-based
[26] = biological target: Prostaglandin E2 receptor EP2 subtype (Homo sapiens, UniProt P43116); test: Antagonist activity at EP2 receptor (unknown origin)
[27] = biological target: T8, Prostacyclin receptor (Homo sapiens, UniProt P43119); test: Antagonist activity at IP receptor (unknown origin)
[28] = biological target: T8, Prostacyclin receptor; test: Agonist activity at IP receptor (unknown origin)
[29] = biological target: T3, Prostaglandin E2 receptor EP3 subtype; test: Antagonist activity at EP3 receptor (unknown origin)
[30] = Antagonist activity at DP2 receptor in human whole assessed as inhibition of DK-PGD2-induced eosinophils shape change preincubated for 5 mins followed by DK-PGD2 addition measured after 5 mins by flow cytometry
[31] = tested on: Rattus norvegicus; test: as §1, with “0.1” for “0.03”, “0.3” for “0.1”; format: functional, organism-based

T8 sequence (P43119 whole entry): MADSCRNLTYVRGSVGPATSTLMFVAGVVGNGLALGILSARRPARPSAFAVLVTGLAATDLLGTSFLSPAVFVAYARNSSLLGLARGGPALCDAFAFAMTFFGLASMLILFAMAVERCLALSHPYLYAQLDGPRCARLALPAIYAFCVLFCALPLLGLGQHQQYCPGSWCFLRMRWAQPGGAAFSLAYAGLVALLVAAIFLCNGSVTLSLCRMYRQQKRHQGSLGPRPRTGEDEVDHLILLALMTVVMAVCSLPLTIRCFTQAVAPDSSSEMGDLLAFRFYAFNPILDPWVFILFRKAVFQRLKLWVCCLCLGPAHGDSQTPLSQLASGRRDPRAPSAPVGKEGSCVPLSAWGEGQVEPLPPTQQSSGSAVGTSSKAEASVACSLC
Sequence of Cytochrome P450 3A4 (P08684 whole entry): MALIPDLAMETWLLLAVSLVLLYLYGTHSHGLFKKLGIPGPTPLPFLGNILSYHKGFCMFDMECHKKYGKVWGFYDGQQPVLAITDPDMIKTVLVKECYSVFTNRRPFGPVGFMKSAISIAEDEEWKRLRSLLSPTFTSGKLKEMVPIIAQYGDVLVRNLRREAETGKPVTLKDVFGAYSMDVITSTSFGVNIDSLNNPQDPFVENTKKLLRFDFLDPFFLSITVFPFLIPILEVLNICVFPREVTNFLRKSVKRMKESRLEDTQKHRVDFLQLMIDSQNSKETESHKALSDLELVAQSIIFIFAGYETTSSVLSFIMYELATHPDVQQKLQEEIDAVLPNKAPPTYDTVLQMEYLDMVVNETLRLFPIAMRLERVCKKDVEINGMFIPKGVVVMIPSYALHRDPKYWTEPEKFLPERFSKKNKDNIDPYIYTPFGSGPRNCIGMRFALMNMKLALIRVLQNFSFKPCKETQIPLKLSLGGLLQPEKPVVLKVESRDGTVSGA
Sequence of Prostaglandin F2-alpha receptor (P43088 whole entry): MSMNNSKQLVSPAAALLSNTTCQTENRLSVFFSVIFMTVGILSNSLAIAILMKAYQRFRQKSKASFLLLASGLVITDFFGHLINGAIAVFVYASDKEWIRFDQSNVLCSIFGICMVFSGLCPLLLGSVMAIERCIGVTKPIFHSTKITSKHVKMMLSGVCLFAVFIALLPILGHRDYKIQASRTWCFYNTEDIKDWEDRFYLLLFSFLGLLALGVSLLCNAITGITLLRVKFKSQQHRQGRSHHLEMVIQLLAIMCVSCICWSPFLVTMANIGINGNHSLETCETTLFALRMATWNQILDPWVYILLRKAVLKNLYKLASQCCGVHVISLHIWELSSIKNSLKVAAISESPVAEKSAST
Sequence of Cytochrome P450 2C9 (P11712 whole entry): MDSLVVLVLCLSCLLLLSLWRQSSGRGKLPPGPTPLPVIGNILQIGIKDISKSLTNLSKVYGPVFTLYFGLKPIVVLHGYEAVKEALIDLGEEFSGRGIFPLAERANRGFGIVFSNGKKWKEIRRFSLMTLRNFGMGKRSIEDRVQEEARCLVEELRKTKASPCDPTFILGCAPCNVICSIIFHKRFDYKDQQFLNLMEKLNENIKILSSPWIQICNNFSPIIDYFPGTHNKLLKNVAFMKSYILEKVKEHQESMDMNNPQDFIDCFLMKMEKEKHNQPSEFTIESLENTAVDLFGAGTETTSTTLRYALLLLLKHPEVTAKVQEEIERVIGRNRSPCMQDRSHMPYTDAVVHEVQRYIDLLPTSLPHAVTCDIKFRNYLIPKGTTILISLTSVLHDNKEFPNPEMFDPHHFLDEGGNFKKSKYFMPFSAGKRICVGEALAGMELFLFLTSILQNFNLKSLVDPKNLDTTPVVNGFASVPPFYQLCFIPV
Sequence of Prostaglandin E2 receptor EP4 subtype (P35408 whole entry): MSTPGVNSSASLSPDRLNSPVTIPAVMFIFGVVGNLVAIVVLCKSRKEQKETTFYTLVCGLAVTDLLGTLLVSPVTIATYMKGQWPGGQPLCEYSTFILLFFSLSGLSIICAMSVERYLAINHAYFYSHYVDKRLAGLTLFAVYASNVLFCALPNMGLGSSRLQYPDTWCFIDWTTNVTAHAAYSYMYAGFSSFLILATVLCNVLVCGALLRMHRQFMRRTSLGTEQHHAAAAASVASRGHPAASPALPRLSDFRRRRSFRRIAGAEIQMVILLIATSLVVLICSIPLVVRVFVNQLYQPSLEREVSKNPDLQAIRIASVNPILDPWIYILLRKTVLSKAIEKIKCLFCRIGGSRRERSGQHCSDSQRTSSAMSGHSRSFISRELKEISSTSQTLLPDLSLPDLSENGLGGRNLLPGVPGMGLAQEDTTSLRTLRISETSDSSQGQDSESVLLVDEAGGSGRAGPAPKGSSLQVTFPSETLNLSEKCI
Sequence of Cytochrome P450 2D6 (P10635 whole entry): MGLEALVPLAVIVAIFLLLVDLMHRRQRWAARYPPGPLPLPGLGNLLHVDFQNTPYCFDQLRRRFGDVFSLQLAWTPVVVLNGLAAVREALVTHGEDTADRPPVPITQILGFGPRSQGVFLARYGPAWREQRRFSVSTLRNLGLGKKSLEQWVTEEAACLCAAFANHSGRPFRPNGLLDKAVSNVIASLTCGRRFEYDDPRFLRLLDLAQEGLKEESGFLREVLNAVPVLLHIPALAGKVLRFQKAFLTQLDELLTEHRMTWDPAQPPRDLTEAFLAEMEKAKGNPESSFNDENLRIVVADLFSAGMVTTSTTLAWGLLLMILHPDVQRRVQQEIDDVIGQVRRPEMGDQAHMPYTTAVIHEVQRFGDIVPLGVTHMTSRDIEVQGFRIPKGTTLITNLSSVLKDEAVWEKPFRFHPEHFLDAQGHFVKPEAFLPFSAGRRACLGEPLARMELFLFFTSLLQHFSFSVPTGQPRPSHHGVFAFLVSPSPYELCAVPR
Sequence of Prostaglandin E2 receptor EP2 subtype (P43116 whole entry): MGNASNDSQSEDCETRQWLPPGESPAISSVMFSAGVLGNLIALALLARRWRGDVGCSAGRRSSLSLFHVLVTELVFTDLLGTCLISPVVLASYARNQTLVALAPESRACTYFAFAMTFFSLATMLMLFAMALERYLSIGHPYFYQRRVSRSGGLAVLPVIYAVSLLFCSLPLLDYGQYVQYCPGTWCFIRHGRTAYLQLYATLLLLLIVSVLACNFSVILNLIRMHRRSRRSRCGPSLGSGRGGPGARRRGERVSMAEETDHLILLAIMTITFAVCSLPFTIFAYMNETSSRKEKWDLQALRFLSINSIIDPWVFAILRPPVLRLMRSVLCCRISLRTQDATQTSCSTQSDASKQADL

SMILES: Cc1c(CC(=O)O)c2cccnc2n1Cc1ccc(C(F)(F)F)cc1C(F)(F)F
IC50 [1]: 14 nM

SMILES: CCS(=O)(=O)c1ccc(Cn2c(C)c(CC(=O)O)c3cccnc32)c(C(F)(F)F)c1
Ki [2]: 7 nM
IC50 [1]: 0.8 nM
half-life [3]: 552 min
clearance [5]: 2.9 mL/min/kg
bioavailability [7]: 97%
Vd [8]: 1.2 L/kg

SMILES: Cc1c(CC(=O)O)c2cccnc2n1Cc1ccc(S(C)(=O)=O)c(C(F)(F)F)c1
Ki [2]: 31 nM
IC50 [1]: 4 nM

SMILES: Cc1ccc2c(CC(=O)O)c(C)n(Cc3ccc(S(C)(=O)=O)cc3)c2n1
Ki [2]: 72 nM

SMILES: Cc1c(CC(=O)O)c2c(Cl)ccnc2n1Cc1ccc(S(C)(=O)=O)cc1
Ki [2]: 356 nM
IC50 [1]: 80 nM

SMILES: CCc1ccc2c(CC(=O)O)c(C)n(Cc3ccc(S(C)(=O)=O)cc3)c2n1
Ki [2]: 47 nM
IC50 [1]: 6 nM

SMILES: Cc1c(CC(=O)O)c2ccccc2n1Cc1ccc(S(C)(=O)=O)cc1
Ki [2]: 19 nM
IC50 [1]: 20 nM
Kd [4]: 25.1 nM
T1/2 [6]: 0.18 min

SMILES: Cc1c(CC(=O)O)c2cc(Br)cnc2n1Cc1ccc(S(C)(=O)=O)cc1
Ki [2]: 735 nM

SMILES: Cc1c(CC(=O)O)c2cccnc2n1Cc1ccc(S(C)(=O)=O)cc1 [QAV680]
IC50 [15]: 25 nM
IC50 [1]: 5 nM
Kd [4]: 15.1 nM
T1/2 [6]: 1.29 min
IC50 [30]: 31 nM
IC50 [24]: 59 nM
IC50 [31]: 40 nM

Second part, led by results:

Ki [2]: 86 nM
SMILES: Cc1c(CC(=O)O)c2cccnc2n1Cc1ccc(S(=O)(=O)C(C)C)cc1

Ki [2]: 6 nM
IC50 [1]: 1.3 nM
half-life [3]: 462 min
Kd [4]: 1.91 nM
clearance [5]: 4.4 mL/min/kg
T1/2 [6]: 3.36 min
bioavailability [7]: 71%
Vd [8]: 1.1 L/kg
SMILES: CCS(=O)(=O)c1ccc(Cn2c(C)c(CC(=O)O)c3cccnc32)c(Cl)c1

IC50 [1]: 4 nM
SMILES: Cc1cc(S(C)(=O)=O)ccc1Cn1c(C)c(CC(=O)O)c2cccnc21

Ki [2]: 4 nM
IC50 [1]: 1.7 nM
SMILES: Cc1c(CC(=O)O)c2cccnc2n1Cc1ccc(S(C)(=O)=O)cc1Cl

Ki [2]: 50 nM
IC50 [1]: 4 nM
SMILES: CCS(=O)(=O)c1ccc(Cn2c(C)c(CC(=O)O)c3cccnc32)cc1

Ki [2]: 1340 nM
SMILES: Cc1cnc2c(c1)c(CC(=O)O)c(C)n2Cc1ccc(S(C)(=O)=O)cc1

IC50 [9]: > 100000 nM
EC50 [10]: > 10000 nM
IC50 [11]: > 100000 nM
Activity [12]: Not Active
IC50 [13]: > 10000 nM
IC50 [14]: > 100000 nM
IC50 [15]: 1.4 nM
fraction unbound [16]: 0.08
IC50 [1]: 0.4 nM
half-life [3]: 792 min
IC50 [18]: > 10000 nM
Kd [4]: 1.02 nM
clearance [5]: 1.6 mL/min/kg
T1/2 [6]: 12 min
IC50 [19]: > 10000 nM
IC50 [20]: > 100000 nM
IC50 [22]: > 10000 nM
bioavailability [7]: 43%
IC50 [23]: 3.1 nM
IC50 [24]: 2.6 nM
Vd [8]: 1.1 L/kg
IC50 [25]: 6.5 nM
IC50 [26]: > 10000 nM
IC50 [27]: > 10000 nM
EC50 [28]: > 10000 nM
IC50 [29]: > 10000 nM
SMILES: Cc1c(CC(=O)O)c2cccnc2n1Cc1ccc(S(C)(=O)=O)cc1C(F)(F)F [FEVIPIPRANT]
Activity [17]: Non-Toxic
Activity [21]: Non-Toxic
